Results reported in ChEMBL document CHEMBL1201862, “PubChem BioAssay data set” (2004).
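Briefly, cells in 96-well plates were exposed to five compound concentrations for 48 h, and endpoints were estimated by linear interpolation. The concentration for 50% growth inhibition is given as GI50.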 Calls of active or inactive are those of the source. Cut-off read from the data, not from the text of the source: active = GI50 up to about 1.1 µM and inactive = higher.

How the values were obtained:
Assay in all cases: NCI tumour cell line growth inhibition, 48 h
SF-268 = system: SF-268
HL-60 = system: HL-60
CAKI-1 = system: CAKI-1
HT-29 = system: HT-29
NCI-H522 = system: NCI-H522
SNB-78 = system: SNB-78
RPMI-8226 = system: RPMI-8226
OVCAR-8 = system: OVCAR-8
SN12C = system: SN12C
SK-MEL-5 = system: SK-MEL-5
KM-20L2 = system: KM-20L2
MOLT-4 = system: MOLT-4
Malme-3M = system: Malme-3M
SF-539 = system: SF-539
EKVX = system: EKVX
HCT-15 = system: HCT-15
NCI-H226 = system: NCI-H226
OVCAR-3 = system: OVCAR-3
SNB-75 = system: SNB-75
CCRF-CEM = system: CCRF-CEM

| Compound | GI50 (SF-268) | GI50 (HL-60) | GI50 (CAKI-1) | GI50 (HT-29) | GI50 (NCI-H522) | GI50 (SNB-78) | GI50 (RPMI-8226) | GI50 (OVCAR-8) | GI50 (SN12C) | GI50 (SK-MEL-5) | GI50 (KM-20L2) | GI50 (MOLT-4) | GI50 (Malme-3M) | GI50 (SF-539) | GI50 (EKVX) | GI50 (HCT-15) [µM] | GI50 (NCI-H226) | GI50 (OVCAR-3) | GI50 (SNB-75) | GI50 (CCRF-CEM) |
| --- | --- | --- | --- | --- | --- | --- | --- | --- | --- | --- | --- | --- | --- | --- | --- | --- | --- | --- | --- | --- |
| CCOC(=O)C1CCn2c(nc3c(=O)n(C)c(=O)n(C)c32)S1 (stereo not given) | > 100 µM (inactive) | > 100 µM (inactive) | > 100 µM (inactive) | > 100 µM (inactive) | > 100 µM (inactive) | > 100 µM (inactive) | > 100 µM (inactive) | > 100 µM (inactive) | > 100 µM (inactive) | > 100 µM (inactive) | > 100 µM (inactive) | > 100 µM (inactive) | > 100 µM (inactive) | > 100 µM (inactive) | > 100 µM (inactive) | > 100 | > 100 µM (inactive) | > 100 µM (inactive) | > 100 µM (inactive) | > 100 µM (inactive) |
| O=C(CC1=NCCN1)c1ccccc1 | > 750 µM (inactive) | 455 µM (inactive) | > 750 µM (inactive) | > 750 µM (inactive) | > 750 µM (inactive) | > 750 µM (inactive) | > 750 µM (inactive) | > 750 µM (inactive) | > 750 µM (inactive) | > 750 µM (inactive) | > 750 µM (inactive) | > 750 µM (inactive) | > 617 µM (inactive) | > 750 µM (inactive) | > 750 µM (inactive) | > 750 | > 536 µM (inactive) | > 750 µM (inactive) | > 735 µM (inactive) | > 511 µM (inactive) |
| COc1ccc(/C(Cl)=C(\C=O)c2ccc(OC)c(OC)c2)cc1 | 30.1 µM (inactive) | 8.85 µM (inactive) | 74.5 µM (inactive) | 29.3 µM (inactive) | 9.35 µM (inactive) | 29 µM (inactive) | 16.5 µM (inactive) | 65.6 µM (inactive) | 81.8 µM (inactive) | 39.2 µM (inactive) | > 100 µM (inactive) | 28.6 µM (inactive) | 17.4 µM (inactive) | 23.8 µM (inactive) | 93.8 µM (inactive) | 52.1 | 34.1 µM (inactive) | > 100 µM (inactive) | 21.7 µM (inactive) | 21.6 µM (inactive) |
